Test results from ChEMBL document CHEMBL6071169, “Maydisens, Sesterterpenoids with Anti-MDR Activity from Bipolaris maydis” (J Nat Prod, 2024).
The source made the active and inactive calls. The calls are words filed in the database; no cut-off is given here.

How the values were obtained:
SW620/AD300 [1] = assay: Reversal of paclitaxel resistance in human SW620/AD300 cells assessed as reduction in paclitaxel IC50 at 20 uM and measured after 72 hrs by CCK-8 method (reference value: 3.4 +/- 0.1 microM); format: functional, cell-based; details: SW620/AD300, 72 h
MDA-MB-453 = assay: Cytotoxicity against human MDA-MB-453 cells at 20 uM incubated for 72 hrs by CCK-8 method; format: functional, cell-based
SW620/AD300 [2] = assay: Cytotoxicity against human SW620/AD300 cells at 20 uM incubated for 72 hrs by CCK-8 method; format: functional, cell-based
A549 = assay: Cytotoxicity against human A549 cells at 20 uM incubated for 72 hrs by CCK-8 method; format: functional, cell-based
LNCaP C4-2B = assay: Cytotoxicity against human LNCaP C4-2B cells at 20 uM incubated for 72 hrs by CCK-8 method; format: functional, cell-based
SW620/AD300 [3] = assay: Reversal of paclitaxel resistance in human SW620/AD300 cells assessed as reversal fold by measuring ratio of paclitaxel IC50 to paclitaxel IC50 in presence of test compound at 20 uM and measured after 72 hrs by CCK-8 method; format: functional
SW620/AD300 [4] = assay: Induction of cell cycle analysis in human SW620/AD300 cells assessed as increase in accumulation of cells at G0/G1 phase at 5 to 20 uM measured after 24 hrs by flow cytometry analysis; format: functional, cell-based; details: dose 5-20 µM
SW620/AD300 [5] = assay: Inhibition of colony formation in human SW620/AD300 cells assessed as decrease in colony count at 20 uM measured after 7 days by crystal violet staining based analysis; format: functional, cell-based; details: time 7.0 day
SW620/AD300 [6] = assay: Inhibition of colony formation in human SW620/AD300 cells assessed as decrease in colony count at 5 uM measured after 7 days in presence of paclitaxel by crystal violet staining based analysis; format: functional, cell-based; details: time 7.0 day
SW620/AD300 [7] = assay: Inhibition of colony formation in human SW620/AD300 cells assessed as decrease in colony count at 20 uM measured after 7 days in presence of paclitaxel by crystal violet staining based analysis; format: functional, cell-based; details: time 7.0 day
SW620/AD300 [8] = assay: Induction of cell cycle analysis in human SW620/AD300 cells assessed as increase in accumulation of cells at G2/M phase measured after 24 hrs by flow cytometry analysis; format: functional, cell-based; details: dose 5-20 µM
SW620/AD300 [9] = assay: Inhibition of colony formation in human SW620/AD300 cells assessed as decrease in colony count at 1 uM measured after 7 days by crystal violet staining based analysis; format: functional, cell-based; details: time 7.0 day

**Q.** What does the source list for `CC(C)=CC(=O)C[C@H](C)[C@H]1CC[C@]2(C)C[C@@H]3C(C)=CC(=O)[C@H]3/C(CO)=C\C[C@@H]12`?
**A.** IC50 (SW620/AD300 [1]): 200 nM; Activity (MDA-MB-453): inactive; Activity (SW620/AD300 [2]): inactive; Activity (A549): inactive; Activity (LNCaP C4-2B): inactive; Ratio IC50 (SW620/AD300 [3]): 17

**Q.** How did the IC50 (SW620/AD300 [1]) turn out when `CC(C)=CCC[C@H](C)C1=CC[C@]2(C)C[C@@H]3C(C)=CC(=O)[C@H]3/C(CO)=C\C[C@@H]12` was run?
**A.** 50 nM

**Q.** What about the Activity (MDA-MB-453) of the same compound?
**A.** inactive

**Q.** And the Activity (SW620/AD300 [4])?
**A.** Active

**Q.** And the inhibition (SW620/AD300 [5])?
**A.** inactive

**Q.** And the Activity (SW620/AD300 [2])?
**A.** inactive

**Q.** What about the Activity (A549) of the same compound?
**A.** inactive

**Q.** What about the inhibition (SW620/AD300 [6]) of the same compound?
**A.** Active

**Q.** And the Activity (LNCaP C4-2B)?
**A.** inactive

**Q.** And the “Ratio IC50” value (SW620/AD300 [3])?
**A.** 72

**Q.** And the inhibition (SW620/AD300 [7])?
**A.** Active

**Q.** What about the Activity (SW620/AD300 [8]) of the same compound?
**A.** Dose-Dependent Effect

**Q.** Which Activity (MDA-MB-453) does the source give for `CC(C)=CCC[C@H](C)[C@H]1CC[C@]2(C)C[C@@H]3C(C)=CC(=O)[C@H]3[C@@H](CO)/C=C\[C@@H]12` here?
**A.** inactive

**Q.** What about the Activity (SW620/AD300 [2]) of the same compound?
**A.** inactive

**Q.** What about the Activity (A549) of the same compound?
**A.** inactive

**Q.** What about the Activity (LNCaP C4-2B) of the same compound?
**A.** inactive

**Q.** With `COC(OC)/C1=C/[C@H](O)[C@H]2[C@@H]([C@@H](C)CCC=C(C)C)CC[C@]2(C)C[C@@H]2C(C)=CC(=O)[C@@H]12` as the compound, how does the IC50 (SW620/AD300 [1]) read?
**A.** 250 nM

**Q.** What about the Activity (MDA-MB-453) of the same compound?
**A.** inactive

**Q.** What about the Activity (SW620/AD300 [2]) of the same compound?
**A.** inactive

**Q.** What about the Activity (A549) of the same compound?
**A.** inactive

**Q.** What about the Activity (LNCaP C4-2B) of the same compound?
**A.** inactive

**Q.** And the “Ratio IC50” value (SW620/AD300 [3])?
**A.** 13

**Q.** For `C/C1=C/C[C@H]2[C@@H]([C@@H](C)CC/C=C(\C)CO)CC[C@]2(C)C/C=C(\C)CC[C@@H]1O`, which Activity (MDA-MB-453) is on record?
**A.** inactive

**Q.** What about the Activity (SW620/AD300 [2]) of the same compound?
**A.** inactive

**Q.** And the Activity (A549)?
**A.** inactive

**Q.** And the Activity (LNCaP C4-2B)?
**A.** inactive

**Q.** Which Activity (MDA-MB-453) does the source give for `CC(C)=CCC[C@H](C)[C@H]1CC[C@]2(C)CC3=C(C(=O)C[C@H]3C)/C(CO)=C\C[C@@H]12` here?
**A.** inactive

**Q.** What about the Activity (SW620/AD300 [2]) of the same compound?
**A.** inactive

**Q.** And the Activity (A549)?
**A.** inactive

**Q.** And the Activity (LNCaP C4-2B)?
**A.** inactive

**Q.** With `CC(=O)O[C@H]1C(=O)[C@@]2(C)[C@H]([C@H](OC(=O)c3ccccc3)[C@]3(O)C[C@H](OC(=O)[C@H](O)[C@@H](NC(=O)c4ccccc4)c4ccccc4)C(C)=C1C3(C)C)[C@]1(OC(C)=O)CO[C@@H]1C[C@@H]2O` as the compound, how does the inhibition (SW620/AD300 [9]) read?
**A.** inactive

**Q.** `CC(C)=CCC[C@H](C)C1=CC[C@]2(C)C[C@@H]3C(C)=CC(=O)[C@H]3/C(C=O)=C\C=C\12` was tested. Which Activity (MDA-MB-453) did it give?
**A.** inactive

**Q.** What about the Activity (SW620/AD300 [2]) of the same compound?
**A.** inactive

**Q.** And the Activity (A549)?
**A.** inactive

**Q.** And the Activity (LNCaP C4-2B)?
**A.** inactive

**Q.** What does the source list for `C/C(=C\CC[C@](C)(O)[C@H]1CC[C@]2(C)C/C=C(\C)CC/C=C(\C)CC[C@@H]12)CO`?
**A.** Activity (MDA-MB-453): inactive; Activity (SW620/AD300 [2]): inactive; Activity (A549): inactive; Activity (LNCaP C4-2B): inactive

**Q.** Which results are given for `C/C1=C\C[C@@]2(C)CC[C@H]([C@@H](C)CC/C=C(\C)C(=O)O)/C2=C/C[C@@]2(C)O[C@@H]2CC1`?
**A.** Activity (MDA-MB-453): inactive; Activity (SW620/AD300 [2]): inactive; Activity (A549): inactive; Activity (LNCaP C4-2B): inactive

**Q.** What does the source list for `C/C1=C/C[C@H]2[C@@H]([C@@H](C)CC/C=C(\C)C(=O)O)CC[C@]2(C)C/C=C(\C)CC[C@@H]1O`?
**A.** Activity (MDA-MB-453): inactive; Activity (SW620/AD300 [2]): inactive; Activity (A549): inactive; Activity (LNCaP C4-2B): inactive

**Q.** `CC(C)=C/C=C/[C@H](C)[C@H]1CC[C@]2(C)C[C@@H]3C(C)=CC(=O)[C@H]3/C(CO)=C\C[C@@H]12` was tested. Which Activity (MDA-MB-453) did it give?
**A.** inactive

**Q.** And the Activity (SW620/AD300 [2])?
**A.** inactive

**Q.** And the Activity (A549)?
**A.** inactive

**Q.** And the Activity (LNCaP C4-2B)?
**A.** inactive

**Q.** Which results are given for `CC(C)=CCC[C@H](C)[C@H]1CC[C@]2(C)C[C@@]3(O)[C@H](C)CC(=O)[C@@H]3/C(CO)=C\C[C@@H]12`?
**A.** IC50 (SW620/AD300 [1]): 1000 nM; Activity (MDA-MB-453): inactive; Activity (SW620/AD300 [2]): inactive; Activity (A549): inactive; Activity (LNCaP C4-2B): inactive; Ratio IC50 (SW620/AD300 [3]): 3

**Q.** How did the Activity (MDA-MB-453) turn out when `CC(C)=CCC[C@H](C)[C@H]1CC[C@]2(C)C[C@@H]3C(CO)=CC(=O)[C@H]3/C(C)=C\C[C@@H]12` was run?
**A.** inactive

**Q.** What about the Activity (SW620/AD300 [2]) of the same compound?
**A.** inactive

**Q.** And the Activity (A549)?
**A.** inactive

**Q.** And the Activity (LNCaP C4-2B)?
**A.** inactive
